Test results taken from patent publication US20240115221A1, “POSITRON IMAGING TOMOGRAPHY IMAGING AGENT C[…] METHOD FOR BACTERIAL INFECTION” (The Research Foundation for the State University of New York, priority 2016, published 2024).

Experiments:
S. aureus [1] = experiment: Rat triceps infection, tracer accumulation and bacterial load under vancomycin treatment
From the text: A key goal is to identify a tracer that can be used to quantify bacterial load and monitor the change in bacterial load during and following antibiotic treatment.

Newman S. aureus [2] = experiment: Rat triceps S. aureus infection model, PET imaging and ex vivo counting; assay type: in vivo
Procedure: Initial in vivo studies focused on soft tissue models of MSSA infection. This included a mouse thigh infection model and rat triceps model. […] Fifty μL of 10^9 CFU of Newman S. aureus BHI culture was injected into the right triceps of a rat. After 10-15 hr the rats were imaged following iv administration of 0.8-1.2 mCi of [^18F]F-PABA. The images clearly show the accumulation of radioactivity in the right but not the left triceps. In addition to monitoring the time course of [^18F]F-PABA biodistribution, we also quantified tracer levels by postmortem ex vivo counting. […] At 60 min tracer levels were 5.4× higher in the infected right triceps compared to the uninfected left triceps. This compares favorably with other tracers.

[3] = tested on: methicillin sensitive S. aureus (MSSA, Newman); experiment: Uptake of [18F]F-PABA by bacteria; assay type: cell-based
From the text: (§1) The ability of different bacterial species to take up [^18F] F-PABA was studied. The radiotracer accumulated in both methicillin sensitive S. aureus (MSSA, Newman) and methicillin-resistant S. aureus (MRSA), as well as the Gram negative bacteria E. coli and Klebsiela pneumoniae.
(§2) In contrast, [^18F]F-PABA was not taken up by Enterococcus faecalis. E. faecalis has a folate salvage pathway and can take up folate from the environment. Thus, folic acid biosynthesis is dispensable in this organism, which also explains why sulfonamides are not used to treat infection by E. faecalis.

Newman S. aureus [4] = experiment: Rat triceps infection versus sterile inflammation (heat-killed S. aureus); assay type: in vivo; conditions: right triceps infected, left triceps heat-killed S. aureus
Procedure: One of the main limitations of using FDG to image infection is that FDG accumulates in the mammalian cells involved in the inflammatory response to infection. It was analyzed how inflammation affected the biodistribution of [^18F]F-PABA by generating an inflammatory response using 50 μL of […] of Newman S. aureus heat-killed bacteria.
accumulation of [^18F]F-PABA at the site of infection is likely not due to uptake by cells involved in the inflammatory response.

E. coli [5] = experiment: Uptake of [18F]F-PABA by bacteria; assay type: cell-based
From the text: as §1

Klebsiela pneumoniae = experiment: Uptake of [18F]F-PABA by bacteria; assay type: cell-based
From the text: as §1

[6] = tested on: methicillin-resistant S. aureus (MRSA); experiment: Uptake of [18F]F-PABA by bacteria; assay type: cell-based
From the text: as §1

Enterococcus faecalis = experiment: Uptake of [18F]F-PABA by bacteria; assay type: cell-based
From the text: as §2

[7] = biological target: T1, dihydropteroate synthase (DHPS) from S. aureus (saDHPS) (Staphylococcus aureus, UniProt O05701); experiment: Coupled assay, kinetic parameters for saDHPS; assay type: biochemical
T1 construct: made in house
T1 sequence (O05701 whole entry): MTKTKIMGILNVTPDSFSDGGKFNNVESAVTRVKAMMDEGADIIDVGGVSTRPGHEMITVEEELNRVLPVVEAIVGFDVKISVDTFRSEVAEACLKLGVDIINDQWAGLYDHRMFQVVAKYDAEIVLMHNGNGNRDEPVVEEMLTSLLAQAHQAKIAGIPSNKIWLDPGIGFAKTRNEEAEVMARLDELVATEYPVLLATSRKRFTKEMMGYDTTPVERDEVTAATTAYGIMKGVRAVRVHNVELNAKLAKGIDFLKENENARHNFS
Procedure: (§3) Expressed and purified dihydropteroate synthase (DHPS) from S. aureus (saDHPS) was cloned. DHPS is the enzyme that installs PABA (p-aminobenzoic acid) in the folate biosynthesis pathway (Scheme 2). […] Using a coupled assay, it was determined that the kinetic parameters for saDHPS with PABA, PAS and F-PABA. […] Since PAS is an antibacterial compound whose mechanism of action may be related for the ability of this compound to compete with PABA for DHPS, we determined the antibacterial activity and cytotoxicity of F-PABA for several bacterial species as well as Vero cells. In each case no growth inhibition was observed up to 200 μg/ml.

Vero cells = experiment: Cytotoxicity for Vero cells; assay type: cell-based
Procedure: as §3

S. aureus [8] = experiment: MIC determination (antibacterial activity); assay type: cell-based; conditions: Staphylococcus aureus
Procedure: as §3

E. coli [9] = experiment: MIC determination (antibacterial activity); assay type: cell-based; conditions: Escherichia coli
Procedure: as §3

M. tuberculosis = experiment: MIC determination (antibacterial activity); assay type: cell-based; conditions: Mycobacterium tuberculosis
Procedure: as §3

[10] = tested on: several bacterial species; experiment: Antibacterial activity for several bacterial species; assay type: cell-based
[11] = after a further 3 doses of vancomycin

Q: For `CN[C@H](CC(C)C)C(=O)N[C@H]1C(=O)N[C@@H](CC(N)=O)C(=O)N[C@H]2C(=O)N[C@H]3C(=O)N[C@H](C(=O)N[C@H](C(=O)O)c4cc(O)cc(O)c4-c4cc3ccc4O)[C@H](O)c3ccc(c(Cl)c3)Oc3cc2cc(c3O[C@@H]2O[C@H](CO)[C@@H](O)[C@H](O)[C@H]2O[C@H]2C[C@](C)(N)[C@H](O)[C@H](C)O2)Oc2ccc(cc2Cl)[C@H]1O` [vancomycin, reference compound], which “bacterial burden of infected triceps” value (S. aureus [1]; after 3 doses of vancomycin) is on record?
A: 8.1±0.3 Log10 CFU

Q: And the “decrease in bacterial burden” value (S. aureus [1]; after 3 doses of vancomycin)?
A: ~3 logs

Q: What about the “bacterial burden of infected triceps” value (S. aureus [1]; [11]) of the same compound?
A: 7.0±0.9 Log10 CFU

Q: What about the “additional decrease in bacterial burden” value (S. aureus [1]; further 3 doses of vancomycin) of the same compound?
A: 1 log

Q: Which “tracer levels in infected right triceps compared to uninfected left triceps” value (Newman S. aureus [2]; iv 0.8-1.2 mCi, at 60 min) does the source give for `Nc1ccc(C(=O)O)c([18F])c1` [[^18F]F-PABA, 4-Amino-2-[^18f]-fluorobenzoic acid] here?
A: 5.4 ×

Q: And the biodistribution of tracer (Newman S. aureus [2]; iv, postmortem ex vivo counting)?
A: distributed to all tissues and organs with the exception of the brain

Q: What about the uptake of radiotracer ([3]; heat-killed MSSA cells) of the same compound?
A: unable to take up

Q: What about the uptake of radiotracer ([3]; viable MSSA (Newman)) of the same compound?
A: accumulated

Q: What about the “radiotracer levels at site of infection compared to site of sterile inflammation” value (Newman S. aureus [4]) of the same compound?
A: 10 fold

Q: And the uptake of radiotracer (E. coli [5])?
A: accumulated

Q: And the uptake of radiotracer (Klebsiela pneumoniae)?
A: accumulated

Q: And the uptake of radiotracer [6]?
A: accumulated

Q: What about the “tracer accumulation in infected triceps” value (S. aureus [1]; after 3 doses of vancomycin) of the same compound?
A: 0.015±0.005 %1D/cc

Q: What about the “decrease in tracer levels” value (S. aureus [1]; after 3 doses of vancomycin versus before treatment) of the same compound?
A: ~3 fold

Q: And the “tracer accumulation in infected triceps” value (S. aureus [1]; [11])?
A: 0.013±0.002 % 10/cc

Q: And the “tracer accumulation in infected triceps” value (S. aureus [1]; before treatment)?
A: 0.051±0.008 %1D/cc

Q: And the “tracer levels in the uninfected triceps” value (S. aureus [1]; uninfected triceps)?
A: 0.007±0.001 %1D/cc

Q: And the uptake of radiotracer (Enterococcus faecalis)?
A: not taken up

Q: Which results are given for `Nc1ccc(C(=O)O)c(F)c1` [2-F-PABA, 2-fluoro-4-aminobenzoic acid]?
A: substrate for saDHPS [7]: alternative substrate for saDHPS; concentration up to which no growth inhibition was observed (cytotoxicity) (Vero cells): > 200 µg/mL; MIC (S. aureus [8]): > 200 µg/mL; MIC (E. coli [9]): > 200 µg/mL; MIC (M. tuberculosis): > 100 µg/mL; MIC ([10]; discussion, species not named): > 100 µg/mL; concentration up to which no growth inhibition was observed ([10]; several bacterial species): > 200 µg/mL; antibacterial activity ([10]; summary of Table 1): no antibacterial activity
